Where two headings read alike, the source gives them in different places.
Tests used:
[1] = In situ rat brain perfusion (brain uptake Kin, extraction E, BBB PS); conditions: for Log Pc: Pc in cm/s; for Log Po: Po in cm/s; for Log PoS: PoS in mL/s/g; for Pc / Po: S assumed 100 cm^2/g; for PcS: cerebral cortex, S = physiological saline, AB = artificial blood
[2] = ref Hansch et al. [123], Avdeef [46] or other sources, cited from earlier work; for Log Poct: octanol partition coefficient
[3] = Neutral fraction at pH 7.4 calculated from pKa; assay type: physicochemical; conditions: neutral fraction at perfusion fluid pH 7.40, calculated from pKa
[4] = rat in vivo measurements; cited from earlier work
[5] = rat in vivo measurements; cited from earlier work; remark: listed apart in the source
[6] = for Brain Kin: calculated at brain blood flow […] and rat serum fu; for Extraction (unbound) / Brain vascular extraction (total): calculated at brain blood flow […]; for Extraction (unbound): free drug; for Brain vascular extraction (total): with rat serum fu; for Maximal flow—90% extraction, PcS/2.3: pH 7.4
[7] = rat, in vivo
[8] = rat
[9] = intrinsic PS of neutral solute, PoS = PcS/fn, flow 0.1–[…]

Molecule | Log Pc [1] | Log Po [1] | Log PoS [1] | Pc [1] | Po [1] | PoS ([1]; brain vascular intrinsic PoS) | PcS ([1]; flow 0.1–[…]) | PoS [1, 9] | Log Poct [2] | Log Doct pH=7.4 [2] | fn (%) [3] | fu,.p [4] | Brain Vu,br [5] | Brain Kin [6] | Extraction (unbound) [6] | Brain vascular extraction (total) [6] | half-life ([8]; brain) | also measured
CC(O)CO (stereo not shown) [1,2-Propanediol] | −4.67 | −4.67 | −2.67 | 2.16e-05 cm/s | 2.16e-05 cm/s | 0.00216 mL/s/g | 0.0022 mL/s/g | 0.00216 mL/s/g | −1.04 | −1.04 | 100% | 1.00 | 1.04 mL/g | 0.0112 mL/s/g | 8.6% | 8.6% |  | 
OCCCO [1,3 Propanediol] | −4.29 | −4.29 | −2.29 |  |  | 0.00516 mL/s/g | 0.0052 mL/s/g | 0.00516 mL/s/g | −0.92 | −0.92 | 100% | 1.00 | 1.02 mL/g |  |  |  |  | Pc [7]: 5.16e-05 cm/s; Po [7]: 5.16e-05 cm/s
OCCCCCCO [1,6-Hexanediol] |  |  |  |  |  |  |  |  | 0.83 | 0.83 | 100% | 0.9 | 1.27 mL/g | 0.0182 mL/s/g | 96.3% | 75.9% | 0.72 min | Log Pc ([7]; pH 7.4): −3.42; Log PoS ([7]; pH 7.4): −1.42; Pc ([7]; pH 7.4): 0.000379 cm/s; PcS ([7]; pH 7.4): 0.038 mL/s/g; PoS ([7]; pH 7.4): 0.0379 mL/s/g; Log Po ([7]; pH 7.4): −3.42; Po ([7]; pH 7.4): 0.000379 cm/s
Cc1c(N(C)C)c(=O)n(-c2ccccc2)n1C [Aminopyrine] |  |  |  |  |  |  |  |  |  |  | 99.0% | 0.80 | 1.67 mL/g | 0.0201 mL/s/g | 89.8% | 83.9% | 0.76 min | 
Cn1c(=O)c2c(ncn2C)n(C)c1=O [Caffeine] |  |  |  |  |  |  |  |  |  |  | 100% |  | 1.28 mL/g | 0.0152 mL/s/g | 64.7% | 63.2% | 0.94 min | 
OC[C@@H](O)[C@@H](O)CO [Erythritol] |  |  |  |  |  |  |  |  | −2.29 | −2.29 | 100% | 1.00 | 0.50 mL/g | 9.27e-05 mL/s/g | 0.15% | 0.15% | 160 min | Log Pc ([7]; pH 7.4): −6.49; Log PoS ([7]; pH 7.4): −4.49; Pc ([7]; pH 7.4): 3.24e-07 cm/s; PcS ([7]; pH 7.4): 3.2e-05 mL/s/g; PoS ([7]; pH 7.4): 3.24e-05 mL/s/g; Log Po ([7]; pH 7.4): −6.49; Po ([7]; pH 7.4): 3.24e-07 cm/s
CNCCC(Oc1ccc(C(F)(F)F)cc1)c1ccccc1 (stereo not shown) [Fluoxetine] |  |  |  |  |  |  |  |  | 4.50 |  | 0.27% | 0.028 | 250 mL/g | 0.0105 mL/s/g | 100% | 21.3% | 15.8 min | 
CC(C(=O)O)c1ccc(-c2ccccc2)c(F)c1 (stereo not shown) [Flurbiprofen] |  |  |  |  |  |  |  |  | 3.99 | 0.91 | 0.06% | 6.3E−03 | 7.76 mL/g | 0.000144 mL/s/g | 61.6% | 0.60% | 3.9 min | Log Pc ([7]; pH 7.4): −3.64; Log PoS ([7]; pH 7.4): 1.58; Pc ([7]; pH 7.4): 0.00023 cm/s; PcS ([7]; pH 7.4): 0.023 mL/s/g; PoS ([7]; pH 7.4): 38.2 mL/s/g; Log Po ([7]; pH 7.4): −0.42; Po ([7]; pH 7.4): 0.38 cm/s
OCC(O)CO [Glycerol] |  |  |  |  |  |  |  |  | −1.76 | −1.76 | 100% | 1.00 | 1.04 mL/g | 1.7e-06 mL/s/g | 0.34% | 0.34% | 145 min | Log Pc ([7]; pH 7.4): −6.08; Log PoS ([7]; pH 7.4): −4.08; Pc ([7]; pH 7.4): 8.29e-07 cm/s; PcS ([7]; pH 7.4): 8.3e-05 mL/s/g; PoS ([7]; pH 7.4): 8.29e-05 mL/s/g; Log Po ([7]; pH 7.4): −6.08; Po ([7]; pH 7.4): 8.29e-07 cm/s
NC(=O)CI [Iodoacetamide] | −4.04 | −4.04 | −2.04 | 9.17e-05 cm/s | 9.17e-05 cm/s | 0.00917 mL/s/g | 0.0092 mL/s/g | 0.00917 mL/s/g | −0.19 | −0.19 | 100% | 0.92 | 1.11 mL/g |  |  |  |  | 
O=C[C@@H](O)[C@H](O)[C@@H](O)[C@@H](O)CO [L-Glucose] | −6.90 | −6.90 | −4.90 |  |  |  | 1.25e-05 mL/s/g | 1.25e-05 mL/s/g | −3.18 | −3.18 | 100% | 1.00 | 0.13 mL/g |  |  |  |  | Pc [7]: 1.25e-07 cm/s; Po [7]: 1.25e-07 cm/s
O=C1Nc2ccc(Cl)cc2C(c2ccccc2Cl)=NC1O (stereo not shown) [Lorazepam] | −2.52 | −2.52 | −0.52 | 0.003 cm/s | 0.003 cm/s |  | 0.30 mL/s/g | 0.30 mL/s/g |  |  | 100% | 0.16 | 15.87 mL/g |  |  |  |  | Maximal flow—90% extraction, PcS/2.3 [6]: 0.13 mL/s/g; half-life [8]: 1.39 min
CO [Methanol] | −3.56 | −3.56 | −1.56 | 0.000278 cm/s | 0.000278 cm/s | 0.0278 mL/s/g | 0.028 mL/s/g | 0.0278 mL/s/g | −0.52 | −0.52 | 100% | 1.00 | 1.06 mL/g |  |  |  |  | 
CNC(N)=O [Methylurea] | −5.72 | −5.72 | −3.72 | 1.91e-06 cm/s | 1.91e-06 cm/s | 0.000191 mL/s/g | 0.00019 mL/s/g | 0.000191 mL/s/g | −1.40 | −1.40 | 100% | 1.00 | 1.04 mL/g | 0.000563 mL/s/g | 0.79% | 0.79% |  | 
CCCCNS(=O)(=O)c1ccccc1 [N-butyl-benzene sulfonamide] | −2.42 | −2.42 | −0.42 | 0.0038 cm/s | 0.0038 cm/s | 0.38 mL/s/g | 0.38 mL/s/g | 0.38 mL/s/g | 2.20 | 2.20 | 100% | 0.30 | 10 mL/g |  |  |  |  | Maximal flow—90% extraction, PcS/2.3 [6]: 0.17 mL/s/g
CC(=O)[C@H]1CC[C@H]2[C@@H]3CCC4=CC(=O)CC[C@]4(C)[C@H]3CC[C@]12C [Progesterone] |  |  |  |  |  |  |  |  | 3.48 | 3.48 | 100% | 0.03 | 28.6 mL/g |  |  |  | 0.42 min | 
CC(C)NCC(O)COc1cccc2ccccc12 (stereo not shown) [Propranolol] |  |  |  |  |  |  |  |  |  |  | 0.74% | 0.09 | 27.8 mL/g | 0.00806 mL/s/g | 98.3% | 30.5% | 3.93 min | 
OC[C@H]1O[C@@](CO)(O[C@H]2O[C@H](CO)[C@@H](O)[C@H](O)[C@H]2O)[C@@H](O)[C@@H]1O [Sucrose] |  |  |  |  |  |  |  |  | −3.57 | −3.57 | 100% | 1.00 | 0.05 mL/g |  | 2.00E-04% | 2.00E-04% | 120 min | 
CC(=O)CC(c1ccccc1)c1c(O)c2ccccc2oc1=O (stereo not shown) [Warfarin] |  |  |  |  |  |  |  |  |  |  | 0.01% | 8.0E−03 | 3.03 mL/g |  |  |  |  | Log Pc ([7]; pH 7.4): −4.15; Log PoS ([7]; pH 7.4): 1.71; Pc ([7]; pH 7.4): 7.06e-05 cm/s; PcS ([7]; pH 7.4): 0.0071 mL/s/g; PoS ([7]; pH 7.4): 51.2 mL/s/g; Log Po ([7]; pH 7.4): −0.29; Po ([7]; pH 7.4): 0.51 cm/s
Inulin | −8.12 | −8.12 | −6.12 | 7.5e-09 cm/s | 7.5e-09 cm/s | 7.5e-07 mL/s/g | 7.5e-07 mL/s/g | 7.5e-07 mL/s/g | −4.36 | −4.13 | 89.0% | 1.00 | 0.02 mL/g |  |  |  |  | 
